Source: patent US7655681B2, “Method of treating and diagnosing sleep disordered breathing and means for carrying out the method” (priority 2004, dated 2010)

Legend:
[1] = tested on: patient with light to moderate OSA; experiment: Controlled repeated dosing, repeated withdrawal study of zonisamide with polysomnographic recording; assay type: in vivo, human; settings: for Sat <90%/hr (number of episodes reaching an oxygen saturation below 90% per hour of sleep): Day 0 baseline 4; for B-gluc (blood glucose concentration): Day 0 baseline 6.7; for CSAI (central sleep apnea index): Day 0 baseline 8; for AI (apnea index, number of obstructive apneas per hour of sleep): Day 0 baseline 16; for HI (hypopnea index, number of obstructive hypopneas per hour of sleep): Day 0 baseline 22; for BMI (body mass index): Day 0 baseline 26.5; for AHI (apnea/hypopnea index): Day 0 baseline 38; for MinSat (lowest oxygen saturation value reached during the sleep recording): Day 0 baseline 82; for DBP (diastolic blood pressure): Day 0 baseline 95; for SBP (systolic blood pressure): Day 0 baseline 165
Experimental: A controlled repeated dosing, repeated withdrawal study of zonisamide was undertaken in a patient (BMI 26.5) with light to moderate OSA (A/H index, 30 and 35 on previous screening). […] A baseline polysomographic recording (standard sleep montage, nasal pressure recording) was undertaken at baseline and zonisamide therapy was started at 100 mg o.d. orally (Zonegran® capsules) with an increase to 400 mg after two weeks and finally to 600 mg at the end of 12 weeks. Repeat sleep recordings were undertaken after 19 days (5 days on 400 mg) and after 90 days (6 days on 600 mg). The following key index data were recorded (Table 1).

[2] = tested on: three male patients with light to moderate/severe OSA; experiment: Uncontrolled repeated dosing study of zonisamide with polysomnography; assay type: in vivo, human; settings: for AHI, mean for all patients: baseline mean 30; for BMI, mean for all patients: baseline mean 32; for Sat. min, mean for all patients: baseline mean 84
Experimental: Uncontrolled repeated dosing of zonisamide. An uncontrolled study of three male patients (mean BMI at baseline 32) with light to moderate/severe OSA treated with zonisamide up to an average of 177 days was performed. Polysomnography (standard sleep montage, nasal pressure recording) was undertaken at baseline. Zonisamide therapy was started at 50 or 100 mg o.d. orally (Zonegran® capsules). […] A repeat sleep study (follow-up 1) was undertaken. A further sleep study (follow-up 2) was performed after 165, 218 and 149 days at doses of 400, 600 and 200 mg, respectively. The follow-up 2 measurements were thus performed at a pharmacokinetical steady-state.

[3] = cited from earlier work
[4] = Day 19 (5 days on 400 mg o.d. orally)
[5] = Day 90 (6 days on 600 mg orally)
[6] = during treatment, 100 to 600 mg orally
[7] = starting already after 10 days of treatment
[8] = follow-up 1, mean dose 200 mg, mean 33 days of treatment
[9] = follow-up 2, mean dose 400 mg, mean 177 days of treatment
[10] = patient two, early titration phase, 50 mg zonisamide, simplified sleep recording

Q: Which results are given for `NS(=O)(=O)Cc1noc2ccccc12` [zonisamide, 1,2-benzisoxazole-3-methanesulfonamide]?
A: Sat <90%/hr (number of episodes reaching an oxygen saturation below 90% per hour of sleep) [1, 4]: <1 per hour of sleep; B-gluc (blood glucose concentration) [1, 4]: 6.4 mM; CSAI (central sleep apnea index) [1, 4]: 2 per hour of sleep; AI (apnea index, number of obstructive apneas per hour of sleep) [1, 4]: 4 per hour of sleep; HI (hypopnea index, number of obstructive hypopneas per hour of sleep) [1, 4]: 9 per hour of sleep; BMI (body mass index) [1, 4]: 26.4 kg/m^2; AHI (apnea/hypopnea index) [1, 4]: 13 per hour of sleep; MinSat (lowest oxygen saturation value reached during the sleep recording) [1, 4]: 89; DBP (diastolic blood pressure) [1, 4]: 89 mmHg; SBP (systolic blood pressure) [1, 4]: 155 mmHg; Sat <90%/hr (number of episodes reaching an oxygen saturation below 90% per hour of sleep) [1, 5]: 0 per hour of sleep; B-gluc (blood glucose concentration) [1, 5]: 5.9 mM; CSAI (central sleep apnea index) [1, 5]: 2 per hour of sleep; AI (apnea index, number of obstructive apneas per hour of sleep) [1, 5]: 2 per hour of sleep; HI (hypopnea index, number of obstructive hypopneas per hour of sleep) [1, 5]: 6 per hour of sleep; BMI (body mass index) [1, 5]: 25.6 kg/m^2; AHI (apnea/hypopnea index) [1, 5]: 8 per hour of sleep; MinSat (lowest oxygen saturation value reached during the sleep recording) [1, 5]: 90; DBP (diastolic blood pressure) [1, 5]: 85 mmHg; SBP (systolic blood pressure) [1, 5]: 145 mmHg; change in total sleep time ([1]; after zonisamide): no clinically significant change; side effects ([1]; during the study period, up to 600 mg orally, 90 days): No side effects were reported; number of mixed events [1, 6]: decreased in proportion to the number of obstructive events; polysomnographically recorded sleep variables [1, 6]: not systematically affected; apnea reducing effect ([1]; obstructive and central events): potent apnea reducing effect; daytime sleepiness ([1]; spontaneous reporting, already after 10 days of treatment): markedly reduced; blood glucose concentration [1, 7]: gradually reduced; blood pressure [1, 7]: gradually reduced; nocturnal snoring episodes ([1]; subjective and spouse reports, soon after onset of treatment): clear reduction; apnea reducing effect ([2]; dosing levels from below 100 mg up to 600 mg daily): potent apnea reducing effect; AHI, mean for all patients [2, 8]: 25 per hour of sleep; BMI, mean for all patients [2, 8]: 31 kg/m^2; Sat. min, mean for all patients [2, 8]: 85; AHI, mean for all patients [2, 9]: 22 per hour of sleep; BMI, mean for all patients [2, 9]: 30 kg/m^2; Sat. min, mean for all patients [2, 9]: 86; AHI ([2]; patient one, follow-up 1, dose 100 mg, 7 days of treatment, baseline 20): 12 per hour of sleep; BMI ([2]; patient one, follow-up 1, dose 100 mg, 7 days of treatment, baseline 28.3): 28.3 kg/m^2; Sat. min (lowest oxygen saturation value reached during the sleep recording) ([2]; patient one, follow-up 1, dose 100 mg, 7 days of treatment, baseline 88): 85; AHI ([2]; patient one, follow-up 2, dose 200 mg, 149 days of treatment, baseline 20): 11 per hour of sleep; BMI ([2]; patient one, follow-up 2, dose 200 mg, 149 days of treatment, baseline 28.3): 27.9 kg/m^2; Sat. min (lowest oxygen saturation value reached during the sleep recording) ([2]; patient one, follow-up 2, dose 200 mg, 149 days of treatment, baseline 88): 90; BMI ([2]; patient three, follow-up 1, dose 100 mg, 10 days of treatment, baseline 35.0): 35.1 kg/m^2; AHI ([2]; patient three, follow-up 1, dose 100 mg, 10 days of treatment, baseline 57): 59 per hour of sleep; Sat. min (lowest oxygen saturation value reached during the sleep recording) ([2]; patient three, follow-up 1, dose 100 mg, 10 days of treatment, baseline 79): 80; BMI ([2]; patient three, follow-up 2, dose 600 mg, 218 days of treatment, baseline 35.0): 33.5 kg/m^2; AHI ([2]; patient three, follow-up 2, dose 600 mg, 218 days of treatment, baseline 57): 53 per hour of sleep; Sat. min (lowest oxygen saturation value reached during the sleep recording) ([2]; patient three, follow-up 2, dose 600 mg, 218 days of treatment, baseline 79): 78; AHI [2, 10]: 8; BMI [2, 10]: 31.3; AHI ([2]; patient two, follow-up 1, dose 400 mg, 81 days of treatment, baseline 12): 3 per hour of sleep; BMI ([2]; patient two, follow-up 1, dose 400 mg, 81 days of treatment, baseline 31.4): 30.7 kg/m^2; Sat. min (lowest oxygen saturation value reached during the sleep recording) ([2]; patient two, follow-up 1, dose 400 mg, 81 days of treatment, baseline 86): 91; AHI ([2]; patient two, follow-up 2, dose 400 mg, 165 days of treatment, baseline 12): 3 per hour of sleep; BMI ([2]; patient two, follow-up 2, dose 400 mg, 165 days of treatment, baseline 31.4): 29.3 kg/m^2; Sat. min (lowest oxygen saturation value reached during the sleep recording) ([2]; patient two, follow-up 2, dose 400 mg, 165 days of treatment, baseline 86): 90; daytime sleepiness ([2]; spontaneous reporting by the patients): overall positive effect; polysomnographically recorded sleep variables ([2]; three patients, during treatment): not systematically affected; side effects ([2]; three patients, up to 600 mg, up to an average of 177 days): No significant side effects were reported; half-life in plasma [3]: about 60 hrs
